pIC50: −log10 of the molar value.
Experiments:
PIK3CA = target: T1, PIK3CA (Homo sapiens, UniProt P42336); assay: In vitro ELISA target engagement assay for PIK3CA in Jurkat cellular lysate (competition with PIK3CA Biotin Probe); format: binding; settings: 1 hour at rt, then 500 nM PIK3CA Biotin Probe, read-out: Elisa Target Engagement Assay (TE50)
T1 construct: endogenous in cells; host or cells: Jurkat cell lysate
In short: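 Competition format in Jurkat lysate: compound (serial dilutions, top 200 μM) for 1 h at rt, then 500 nM final biotinylated PIK3CA probe for 1 h at rt. Sandwich ELISA with capture antibody and Neutravidin-HRP luminescence read-out measured probe-labelled PIK3CA, giving TE50.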

[1] = tested on: pAKT(S473) in FaDu cell line; assay: In vitro Phospho-AKT(S473) HTRF analysis in FaDu cells; format: cell-based; settings: Homo sapiens, 0.5 h; for pIC50: FaDu cells, 30 minutes at 37° C.; for Emax: FaDu, read-out: FaDu pAKT Imax % control
Experimental: Example 5. In Vitro Phosgho-AKT(S473) Analysis
Functional activity of the compounds to inhibit pAKT were assessed in FaDu or H358 cell lines as indicated below.
• Complete Media • FBS, Corning catalog #35-010-CV • Anti-Anti, Gibco catalog #15240-062 • 96 well plate, Corning catalog #3610 • TrypLE, Gibco catalog #12604013 • Phospho-AKT(S473) HTRF kit, Cisbio catalog #64AKSPET
Cells were detached from the tissue culture flask with TrypLE. The cells were pelleted at 500×g for 5 min, TrypLe was removed and then resuspended in the necessary volume of media+1% FBS to give the appropriate cell density (17,500 cells/mL for FaDu; 20,000 cells/mL for H358). 100 μL of cell suspension/well was dispensed into the 96-well plate while keeping the outer wells of the plate free of cells and filled with PBS to prevent evaporation of interior wells. The plate was incubated at 37° C. and allowed to adhere overnight. The cells were treated with a dose response of compound and incubated at 37° C. for 30 minutes. The cells were then processed and pAKT(S473) levels were assessed following the specifications of the Cisbio HTRF kit.

T1 sequence (P42336 whole entry): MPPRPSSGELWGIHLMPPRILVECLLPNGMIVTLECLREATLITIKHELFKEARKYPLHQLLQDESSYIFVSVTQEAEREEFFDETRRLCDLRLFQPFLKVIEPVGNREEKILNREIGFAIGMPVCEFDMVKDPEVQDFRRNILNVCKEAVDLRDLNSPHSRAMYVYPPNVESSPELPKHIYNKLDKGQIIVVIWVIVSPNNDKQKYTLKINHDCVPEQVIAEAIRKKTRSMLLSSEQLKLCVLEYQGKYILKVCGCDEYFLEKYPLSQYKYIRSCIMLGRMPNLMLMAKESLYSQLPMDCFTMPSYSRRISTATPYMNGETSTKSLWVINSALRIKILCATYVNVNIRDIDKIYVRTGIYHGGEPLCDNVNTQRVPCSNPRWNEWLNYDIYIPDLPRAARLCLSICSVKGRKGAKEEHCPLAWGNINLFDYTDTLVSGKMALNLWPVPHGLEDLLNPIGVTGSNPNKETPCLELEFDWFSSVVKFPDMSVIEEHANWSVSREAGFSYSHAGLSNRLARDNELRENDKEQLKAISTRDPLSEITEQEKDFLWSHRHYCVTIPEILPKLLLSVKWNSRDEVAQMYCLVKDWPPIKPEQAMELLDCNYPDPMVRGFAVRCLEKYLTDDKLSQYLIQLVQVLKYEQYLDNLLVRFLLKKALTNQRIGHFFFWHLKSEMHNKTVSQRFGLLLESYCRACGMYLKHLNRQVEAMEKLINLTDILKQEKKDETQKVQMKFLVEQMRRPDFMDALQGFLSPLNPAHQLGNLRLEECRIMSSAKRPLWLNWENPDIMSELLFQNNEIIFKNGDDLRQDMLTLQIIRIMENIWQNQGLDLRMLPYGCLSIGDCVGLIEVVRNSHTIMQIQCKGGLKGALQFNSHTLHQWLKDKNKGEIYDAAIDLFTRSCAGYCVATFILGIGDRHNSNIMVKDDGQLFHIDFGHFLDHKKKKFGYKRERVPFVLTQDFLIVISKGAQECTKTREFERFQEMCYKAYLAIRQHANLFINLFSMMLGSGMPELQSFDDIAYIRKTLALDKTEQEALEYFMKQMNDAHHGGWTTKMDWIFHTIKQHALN
T1 sequence (P27986 whole entry partner): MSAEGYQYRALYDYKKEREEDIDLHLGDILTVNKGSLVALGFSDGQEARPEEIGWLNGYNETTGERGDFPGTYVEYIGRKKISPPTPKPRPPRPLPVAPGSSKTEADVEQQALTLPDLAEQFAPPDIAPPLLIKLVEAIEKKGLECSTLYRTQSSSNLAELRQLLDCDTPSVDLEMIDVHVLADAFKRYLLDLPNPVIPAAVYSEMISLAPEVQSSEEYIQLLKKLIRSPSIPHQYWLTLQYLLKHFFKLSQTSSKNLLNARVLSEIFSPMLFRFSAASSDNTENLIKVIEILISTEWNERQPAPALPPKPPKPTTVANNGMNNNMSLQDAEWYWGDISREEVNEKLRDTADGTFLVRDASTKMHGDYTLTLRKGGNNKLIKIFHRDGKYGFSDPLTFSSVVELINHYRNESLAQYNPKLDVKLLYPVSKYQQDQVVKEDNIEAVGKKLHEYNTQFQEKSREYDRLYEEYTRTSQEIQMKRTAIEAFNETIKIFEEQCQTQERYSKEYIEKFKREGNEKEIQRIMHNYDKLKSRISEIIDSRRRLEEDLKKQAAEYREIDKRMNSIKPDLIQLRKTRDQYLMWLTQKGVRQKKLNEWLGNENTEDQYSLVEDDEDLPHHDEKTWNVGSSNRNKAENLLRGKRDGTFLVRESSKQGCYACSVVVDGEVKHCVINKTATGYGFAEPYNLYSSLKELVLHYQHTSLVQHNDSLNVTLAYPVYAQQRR

Row | pIC50 (PIK3CA) | pIC50 [1] | SMILES | Emax [1]
1 | 6.24 | 6.30 | Cc1cccc([C@@H]2CN(CC(F)(F)F)C[C@@H]2C(=O)N2CCC[C@](F)(C(=O)N[C@H](C)/C=C\S(C)(=O)=O)CC2)c1Cl (single isomer, unassigned) [Compound 172, (R)-1-((3*R,4*R)-4-(2-chloro-3-methylphenyl)-1-(2,2,2-trifluoroethyl)pyrrolidine-3-carbonyl)-4-fluoro-N-((R,Z)-4-(methylsulfonyl)but-3-en-2-yl)azepane-4-carboxamide] | 97.9%
2 | 6.56 | 6.77 | C[C@H]1C[C@](F)(C(=O)N[C@@H]2C=CS(=O)(=O)C2)CCN1C(=O)[C@H]1CN(CC(F)(F)F)C[C@H]1c1ccccc1Cl (single isomer, unassigned) [Compound 174, (2*S,4*S)-1-((3R,4R)-4-(2-chlorophenyl)-1-(2,2,2-trifluoroethyl)pyrrolidine-3-carbonyl)-N-((R)-1,1-dioxido-2,3-dihydrothiophen-3-yl)-4-fluoro-2-methylpiperidine-4-carboxamide] | 91.8%
3 | 6.85 | 7.00 | C[C@@H](NC(=O)C1(F)CCN(S(=O)(=O)c2ccc(Br)cc2-c2ccccc2Cl)CC1)C1=CS(=O)(=O)C1 (single isomer, unassigned) [Compound 234, (*R)-1-((5-bromo-2′-chloro-[1,1′-biphenyl]-2-yl)sulfonyl)-N-(1-(1,1-dioxido-2H-thiet-3-yl)ethyl)-4-fluoropiperidine-4-carboxamide] | 
4 | 7.26 | 7.13 | C[C@H](/C=C\S(=O)(=O)[C@@H]1CCN(C)C1)NC(=O)C1(F)CCN(S(=O)(=O)c2ccc(Br)cc2-c2ccccc2Cl)CC1 (single isomer, unassigned) [Compound 237, 1-((5-bromo-2′-chloro-[1,1′-biphenyl]-2-yl)sulfonyl)-4-fluoro-N-((R,Z)-4-(((*R)-1-methylpyrrolidin-3-yl)sulfonyl)but-3-en-2-yl)piperidine-4-carboxamide] | 
5 | 7.60 | 7.53 | C[C@H](/C=C\S(=O)(=O)[C@H]1CCN(C)C1)NC(=O)C1(F)CCN(S(=O)(=O)c2ccc(Br)cc2-c2ccccc2Cl)CC1 (single isomer, unassigned) [Compound 238, 1-((5-bromo-2′-chloro-[1,1′-biphenyl]-2-yl)sulfonyl)-4-fluoro-N-((R,Z)-4-(((*S)-1-methylpyrrolidin-3-yl)sulfonyl)but-3-en-2-yl)piperidine-4-carboxamide] | 
6 | 6.92 | 6.36 | CS(=O)(=O)/C=C\[C@H](CC(F)(F)F)NC(=O)C1(F)CCN(S(=O)(=O)c2ccc(Br)cc2-c2ccccc2Cl)CC1 (single isomer, unassigned) [Compound 240, (*S,Z)-1-((5-bromo-2′-chloro-[1,1′-biphenyl]-2-yl)sulfonyl)-4-fluoro-N-(5,5,5-trifluoro-1-(methylsulfonyl)pent-1-en-3-yl)piperidine-4-carboxamide] | 
7 | 6.07 | 6.13 | C[C@H](/C=C\S(C)(=O)=O)NC(=O)C1(F)CCN(S(=O)(=O)c2ccc(Br)cc2-c2cccc(Br)c2)CC1 [Compound 58, (R,Z)-1-((3′,5-dibromo-[1,1′-biphenyl]-2-yl)sulfonyl)-4-fluoro-N-(4-(methylsulfonyl)but-3-en-2-yl)piperidine-4-carboxamide] | 97.5%
8 | 6.47 | 6.53 | CC(=O)c1ccc(S(=O)(=O)N2CCC(F)(C(=O)N[C@H](C)/C=C/C(=O)N3CC(F)(F)C3)CC2)c(-c2ccccc2Cl)c1 [Compound 138, (R,E)-1-((5-acetyl-2′-chloro-[1,1′-biphenyl]-2-yl)sulfonyl)-N-(5-(3,3-difluoroazetidin-1-yl)-5-oxopent-3-en-2-yl)-4-fluoropiperidine-4-carboxamide] | 93.5%
